We go through 4 compounds from publication PMC3914206.

For experiment [1], the target named is T1, panel of 442 kinases (Homo sapiens, UniProt P49759).
T1 construct: purchased KINOMEscan
Format: binding. Particulars: Compound Concentration 10 µM. From the text:
(§1) We assessed the selectivity of members of this scaffold using the KINOMEscan methodology across a near comprehensive panel of 442 kinases [[18,27]].

The target of experiment [2] is T2, panel of 442 kinases (Homo sapiens, UniProt Q6ZN16).
T2 construct: purchased KINOMEscan
T2 sequence (Q6ZN16 1-1313): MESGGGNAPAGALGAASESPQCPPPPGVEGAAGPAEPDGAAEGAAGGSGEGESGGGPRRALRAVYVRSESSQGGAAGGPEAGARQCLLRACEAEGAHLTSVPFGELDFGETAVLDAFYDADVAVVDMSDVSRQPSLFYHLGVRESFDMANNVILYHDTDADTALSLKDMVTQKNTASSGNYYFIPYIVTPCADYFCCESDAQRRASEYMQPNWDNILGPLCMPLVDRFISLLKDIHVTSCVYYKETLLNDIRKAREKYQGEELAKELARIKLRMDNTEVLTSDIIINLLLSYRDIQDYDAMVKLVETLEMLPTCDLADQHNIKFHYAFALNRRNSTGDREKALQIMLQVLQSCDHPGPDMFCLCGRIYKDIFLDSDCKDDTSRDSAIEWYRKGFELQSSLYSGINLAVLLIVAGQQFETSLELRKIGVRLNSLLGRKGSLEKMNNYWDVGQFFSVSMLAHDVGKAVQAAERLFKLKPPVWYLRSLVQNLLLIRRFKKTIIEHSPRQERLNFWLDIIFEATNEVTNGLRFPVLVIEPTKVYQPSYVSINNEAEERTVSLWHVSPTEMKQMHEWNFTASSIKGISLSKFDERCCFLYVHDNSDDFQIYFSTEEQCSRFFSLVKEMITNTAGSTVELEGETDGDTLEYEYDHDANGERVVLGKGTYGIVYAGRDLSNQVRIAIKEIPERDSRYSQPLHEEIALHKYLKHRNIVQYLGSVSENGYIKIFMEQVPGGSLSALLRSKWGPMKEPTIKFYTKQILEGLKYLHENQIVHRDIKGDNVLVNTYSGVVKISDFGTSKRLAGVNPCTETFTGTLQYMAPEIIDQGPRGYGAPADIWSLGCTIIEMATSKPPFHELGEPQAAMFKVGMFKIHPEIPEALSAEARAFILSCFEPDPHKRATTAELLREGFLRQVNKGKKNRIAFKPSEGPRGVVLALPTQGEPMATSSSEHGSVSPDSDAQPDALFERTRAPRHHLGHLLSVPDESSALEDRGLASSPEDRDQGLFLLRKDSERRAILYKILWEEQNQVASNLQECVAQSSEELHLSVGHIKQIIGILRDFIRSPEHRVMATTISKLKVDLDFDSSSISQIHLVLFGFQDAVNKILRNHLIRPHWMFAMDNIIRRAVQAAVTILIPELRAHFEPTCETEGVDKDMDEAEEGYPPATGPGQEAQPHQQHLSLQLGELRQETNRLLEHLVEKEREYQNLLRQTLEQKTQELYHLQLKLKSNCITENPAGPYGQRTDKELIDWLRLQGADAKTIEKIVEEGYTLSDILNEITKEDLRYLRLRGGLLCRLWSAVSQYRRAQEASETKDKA
It is filed as binding. Particulars: Compound Concentration 10 µM.
Excerpt: as §1

T1 sequence (P49759 whole entry): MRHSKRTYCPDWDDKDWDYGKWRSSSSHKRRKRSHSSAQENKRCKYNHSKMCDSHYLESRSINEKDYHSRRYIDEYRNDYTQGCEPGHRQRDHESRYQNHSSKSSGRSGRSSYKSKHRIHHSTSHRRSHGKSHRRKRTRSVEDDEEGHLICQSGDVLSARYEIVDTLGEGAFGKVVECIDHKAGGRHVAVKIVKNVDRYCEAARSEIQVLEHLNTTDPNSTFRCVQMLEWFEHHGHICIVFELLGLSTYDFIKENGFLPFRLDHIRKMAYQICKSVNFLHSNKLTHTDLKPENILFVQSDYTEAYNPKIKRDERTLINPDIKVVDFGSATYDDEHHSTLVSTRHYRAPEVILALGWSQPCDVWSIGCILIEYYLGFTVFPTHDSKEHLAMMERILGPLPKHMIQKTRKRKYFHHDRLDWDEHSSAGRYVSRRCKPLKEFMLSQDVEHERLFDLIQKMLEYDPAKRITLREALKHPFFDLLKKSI

On to `COc1cc(C(=O)N2CCC(N3CCN(C)CC3)CC2)ccc1Nc1ncc2c(n1)N(C1CCCC1)c1ccccc1C(=O)N2C` [Compound 25, 11-cyclopentyl-2-((2-methoxy-4-(4-(4-methylpiperazin-1-yl)piperidine-1-carbonyl)phenyl)amino)-5-methyl-5H-benzo[e]pyrimido[5,4-b][1,4]diazepin-6(11H)-one], for which the “KINOMEscan: CLK1” value in experiment [1] came to 100. Moreover, in experiment [2], the “KINOMEscan: MAP3K15” value turned out to be 88.
Take `COc1cc(C(=O)N2CCC(N3CCN(C)CC3)CC2)ccc1Nc1ncc2c(n1)N1CCc3cccc(c31)C(=O)N2C` [Compound 24]: the “KINOMEscan: CLK1” value in experiment [1] stood at 11. Besides, the “KINOMEscan: MAP3K15” value in experiment [2] was found to be 77.
The corresponding values for `COc1cc(C(=O)N2CCC(N3CCN(C)CC3)CC2)ccc1Nc1ncc2c(n1)N(C)c1ccccc1C(=O)N2C` [15 (LRRK2-IN-1)] are 28 and 69.
`CCOc1cc(C(=O)N2CCC(N3CCN(C)CC3)CC2)ccc1Nc1ncc2c(n1)N(C1CCCC1)c1ccccc1C(=O)N2C` [Compound 26]: the “KINOMEscan: CLK1” value in experiment [1] amounted to 100. The “KINOMEscan: MAP3K15” value in experiment [2] is reported as 95.
